{
  "source": "patent US9427433B2",
  "about": "“Methods and compositions for enhancing fertility and/or inhibiting pregnancy failure and restoring glucose tolerance” (Queen's University at Kingston, priority 2011, dated 2016)",
  "key": {"[1]": {"test_system": "NZO mice fed a high fat diet", "assay": "Fasting serum glucose, fasting serum insulin and glucose tolerance, comparison of macrolides", "type": "in vivo, mouse", "procedure": "(§1) Female mice were administered tacrolimus (0.1 mg/kg or 0.05 mg/kg, n=6/group), vehicle (n=10), pimecrolimus (0.1 mg/kg, n=6) or sirolimus (0.1 mg/kg, n=6) subcutaneously every other day for 3 weeks.\n(§2) For the comparative evaluation of other macrolide drugs to tacrolimus, mice starting at 7 weeks of age were maintained on the high fat diet for a total of 13 weeks of study period. Mice were entered into the experiments when determined to be glucose intolerant as described above. Methods of drug administration and other experimental methods were as described above.\nGlucose Tolerance Test (GTT): was performed according to standard protocol (Ayala et al 2010). Briefly, basal glucose levels were measured for conscious mice individually caged in 1000 cc plastic mouse caging using a one-touch ultra glucose strips and meter (Acqui-check Aviva, Roche, Montreal, Canada) and approximately 30 microliters of blood obtained via tail venipuncture prior to fasting for six hours in cages equipped with hardwood bedding. Fasting blood glucose was recorded at the end of the six hours fasting period. Mice were then tested for oral glucose tolerance (OGTT) or for insulin sensitivity (Si). For OGTT alert mice were then given 20% D-glucose (2 g/kg body weight) sterile syrup administered orally. For Si experiments mice were given 20% D-glucose (2 g/kg body weight) sterile syrup by intraperitoneal administration through a 1 ml D29 gage “½” insulin syringe (Fisher Scientific, Montreal, Canada). Then after, blood glucose was recorded at 15, 30, 45, 60, 90 and 120 minutes respectively. For Si experiments blood glucose was determined only at 15 minutes. Glucose tolerance graphs were generated by blotting mean±standard error of the mean (SEM) of the recorded glucose data per mouse per minute collection time. One way analysis of variance (ANOVA) followed by student t-test was performed to determine alpha values for statistical differences among mean blood glucose values across experimental mice groups.\nFasting immuno-reactive mouse insulin levels were quantitatively determined in citrated platelet-free plasma samples obtained from 6 hours-fasting mice using an Ultrasensitive mouse Insulin Eliza kit (#90080, Crystal chem., IL, USA) according to the manufacturer instructions. Briefly, platelet-free plasma were isolated from freshly obtained citrated whole blood samples of fasting mice and the provided insulin standards were incubated overnight on a shaking platform at 4 C^0 in a 96 wells plate coated with Guinea pig anti-insulin. Afterwards, unbound sample materials were thoroughly washed with the supplied wash buffers and the bound guinea pig anti-insulin/mouse insulin complex immobilized to the microplate wells were incubated with Horseradish peroxidase (HRP)-conjugated anti-insulin antibody for 40 minutes at room temperature with continuous agitation. Excess unbound HRP-conjugated anti-insulin antibodies were then washed excessively with wash buffers and the HRP-mediated color reaction was developed with the addition of 3,3′,5,5′ tetramethylbenzidine (TMB) substrate solution. The amount of insulin (ng/ml) present in the test samples were then measured via interpolation using the standard curve generated by plotting absorbance (at A^0450-A^0635) versus the corresponding concentration of a wide range (0.1-12.8 ng/ml) of mouse insulin standards according to the provider's instructions. Graphic representation of differences in mean±sem of plasma insulin among different groups of mice were blotted using Prism5 (La Jolla, Calif., USA) software and statistically significant differences (at 95% confidence) were calculated for the different test groups of mice using one way ANOVA followed by Bonferroni modified student t-test comparing differences between individual experimental groups."}, "[2]": {"test_system": "NZO mice fed a high fat diet", "assay": "Implantation rate and resorption, comparison of macrolides", "type": "in vivo, mouse", "details": "vs vehicle", "procedure": "as §2\nPeri-implantation (E4.5) and post-implantation (E6.5) pregnant and/or pseudopregnant (E4.5bid and E6.5bid) mouse uteri were prepared after mating respectively with fertile and/or vasectomized males as previously described (Herington et al. Endocrinol 2009 150: 4404-4413). The morning of vaginal plug detection was considered as gestational day 0.5 (E0.5 or Gd.0.5). An average number of twenty Concanavalin A(ConA)-coated sepharose beads (average size of 0.1 mm-diameter) (Sigma-Aldrich, Burlington, Ontario, Canada) was injected into the lumen of the left uterine horn of anesthetized animals between hours 13:00 and 16:00 on day 2.5 of pseudopregnancy according to the procedure described by Herington et al. (Endocrinol, 2009 150: 4404-4413). With the use of Ketamine/Xyalzine anesthesia and cardiac puncture, all animals were sacrificed at the age of 16-18 weeks between the morning hours 09:00-11:00. Pregnant and pseudopregnant mice were sacrificed in the morning of days 4.5 and 6.5 of their respective pregnancy. Blood samples were collected from all animals and were let stand for 1 hour at room temperature before isolation of the serum. Serum samples were stored at −80° C. until they were analyzed for their steroid hormones and lipid contents by appropriate laboratory procedures such as radio-immunoassay (RIA) all of which were conducted at the Department of Clinical Chemistry (Kingston General Hospital, Kingston, Ontario, Canada). Ovaries, oviducts and uteri were carefully dissected out of carcasses and were placed in ice-cold phosphate buffered saline (PBS)-containing petri dishes. Under a dissecting microscope, uteri were carefully isolated from their attached uterine tubes, trimmed of all mesenteric fat and were immediately weighed. The numbers of corpora lutea and implantation sites (viable and resorbed) were counted, respectively, from E4.5 and E6.5 pregnant mouse ovaries and uteri. For protein and RNA extraction, virgin uteri and segments of uterine horns containing inter-implantation sites of pregnant and pseudopregnant uteri were transected and snapped frozen in liquid nitrogen.\nExamination of external morphological features of uteri of pregnant mice, including counts of implantation sites and photography was performed using a computerized dissecting microscope (Leica Diagnostic Instruments, USA) and the image acquisition and analytic software (SPOT 2.2.0). Percentage of peri-implantation embryo loss was calculated as described by Bindali and Kaliwal (Ind. Health, 2002 40:191-197), using the formula: % Preimplantation loss=[Total number of corpora lutea−Total number of implantation]/Total number of corpora lutea. Immunohistochemical localization and assessment of microscopic morphological features of implantation and inter-implantation sites in normoglycemic and diabetic NOD mice were performed on methacarn (60% methanol, 30% chloroform and 10% acetic acid)-fixed specimens. […]"}, "[3]": {"test_system": "type 2 diabetes NZO mouse model", "assay": "HOMA-IR, HOMA-B and insulin sensitivity index (Si)", "type": "in vivo", "procedure": "as §1\nHOMA IR=fasting glucose (mmol/L)×fasting insulin ([…])/22.5 according to the method of Bonora E et al., 2000. Pancreatic β-Cell function (HOMA-B) was calculated according to the method of Tresaco B et al., 2005, HOMA-B=[20×[…]). Insulin sensitivity (Si) was determined according to the method of Matthews D et al., 1985. Si=[basal glucose]−[glucose 15 min]/15)."}, "[4]": {"test_system": "high fat fed female NZO mice", "assay": "Ovarian histology of macrolide-treated chronically high fat fed NZO mice", "type": "in vivo, mouse", "details": "chronically high fat diet fed NZO mice", "procedure": "Statistical differences between groups were measured by two-way analysis of variance (ANOVA) followed by Bonferroni post-hock t-test comparing effect of all tested macrolides on mean follicular structure counts/unit area at 95% confidence. Scale bars=200 μm for B, D, F, G, H, I, J and 50 μm for A, C, E. N=10 (HFD-NZO), 6 per treatment group. A, C and E are higher magnifications of B, D and F respectively. * denoting ovarian cyst(s).\nas §2"}, "[5]": {"test_system": "female NZO mice fed a continuous high fat diet", "assay": "Weight loss, comparison of macrolides", "type": "in vivo, mouse", "details": "tacrolimus 0.05 or 0.1 mg/kg, pimecrolimus 0.1 mg/kg, sirolimus 0.1 mg/kg s.c. every other day for three weeks; vs vehicle", "from_the_text": "as §2"}, "[6]": {"details": "0.1 mg/kg s.c. every other day for 3 weeks, vs vehicle"}},
  "data": [
    {"smiles": "CC[C@@H]1/C=C(\\C)C[C@H](C)C[C@H](OC)[C@H]2O[C@@](O)(C(=O)C(=O)N3CCCC[C@H]3C(=O)O[C@H](/C(C)=C/[C@@H]3CC[C@H](Cl)[C@H](OC)C3)[C@H](C)[C@@H](O)CC1=O)[C@H](C)C[C@@H]2OC", "note": "[pimecrolimus]", "values": [
      {"measurement": "fasting basal serum glucose", "setting": "[1]; [6]", "result": "maintained low fasting basal serum glucose and insulin levels"},
      {"measurement": "fasting basal serum insulin", "setting": "[1]; [6]", "result": "maintained low fasting basal serum glucose and insulin levels"},
      {"measurement": "glucose intolerance", "setting": "[1]; 0.1 mg/kg, FIG. 17C, p=0.0001", "result": "significantly reduced glucose intolerance although to a lesser degree than tacrolimus"},
      {"measurement": "insulin secretion in response to a hyperglycemic challenge", "setting": "[1]; tacrolimus 0.1 or 0.05 mg/kg, pimecrolimus 0.1 mg/kg, sirolimus 0.1 mg/kg s.c. every other day for 3 weeks, vs vehicle", "result": "significantly improved insulin secretion"},
      {"measurement": "embryonic and fetal absorption rate", "setting": "[2]; same treatments, p<0.05", "result": "significantly reduced embryonic and fetal absorption rate"},
      {"measurement": "implantation rate", "setting": "[2]; tacrolimus 0.05 and 0.1 mg/kg, pimecrolimus 0.1 mg/kg, sirolimus 0.1 mg/kg s.c. every other day for three weeks", "result": "significantly improved implantation rate (p<0.05)"},
      {"measurement": "insulin resistance (HOMA-IR)", "setting": "[3]; p<0.001 vs vehicle", "result": "significantly reduced insulin resistance"},
      {"measurement": "insulin sensitivity (Si)", "setting": "[3]; p<0.01 vs vehicle", "result": "enhanced insulin sensitivity"},
      {"measurement": "pancreatic β-cell function (HOMA-B)", "setting": "[3]; p<0.05 vs vehicle", "result": "enhanced pancreatic β-cell function"},
      {"measurement": "follicular growth pattern in the ovaries", "setting": "[4]", "result": "restored follicular growth pattern"},
      {"measurement": "ovarian cyst formation", "setting": "[4]; p<0.001", "result": "inhibited the development of ovarian cysts"},
      {"measurement": "ovarian follicular atresia", "setting": "[4]; vs untreated HFD-NZO", "result": "significantly inhibited ovarian follicular atresia (p<0.01)"},
      {"measurement": "weight loss", "setting": "[5]", "result": "induced statistically significant weight loss"}
    ]}
  ]
}
